For one assay, the target named is T1, BRD4 (Mus musculus, UniProt Q9ESU6).
T1 construct: Primary cortical neurons express BRD2/3/4, with BRD2 and BRD4 being the most abundant; endogenous in cells; host or cells: primary cortical neuronal cultures (mouse)
Briefly: ChIP sequencing of BRD4 chromatin occupancy in neurons. The assay is classed as cell-based. The protocol: Chromatin Immunoprecipitation with Sequencing. Primary cortical neuronal cultures were washed once with PBS then fixed for 10 minutes with a 1% formaldehyde solution in PBS with protease inhibitors (Sigma #P8340) at room temperature. Fixation was quenched adding glycine to a final concentration of 0.125M (5 minutes, room temperature). 10e6 fixed cells were resuspended in 1 ml of lysis buffer (50 mM Hepes KOH, pH7.5, 140 mM NaCl, 1 mM EDTA, 10% glycerol, 0.5% NP-40, 0.25% Triton X-100) and 10 ul of protease inhibitor cocktail (PIC). Samples were rotated for 10 minutes at 4 degrees then spun at 1350 g at 4 C for 10 minutes. Pellets were resuspended in 1 ml of lysis buffer 2 (10 mM Tris-HCl pH8.0, 200 mM NaCl, 1 mM EDTA, 0.5 mM EGTA) and 10 ul PIC.). 5e6 nuclei were sonicated in lysis buffer 3 (10 mM Tris-HCl pH8.0, 100 mM NaCl, 1 mM EDTA, 0.5 mM EGTA, 0.1% Na-Deoxicholate, 0.5% N-Lauroylsarcosine) at 4 degrees for 5 cycles of 30 seconds ON/30 seconds OFF using the Diagenode bioruptor. After, 30 ul of 10% Triton-X100 was added to each sample and then spun for 15 minutes at 20,000 g at 4 degrees. Sonication efficiency was checked by running the samples on a 2% agarose gel to confirm enrichment for fragments from 200-500 bps.
Streptavidin M-280 dynabeads were blocked with 0.5% BSA solution and coupled to 7 ug of antibody (Brd4 #Ab84778, Brd2 Bethyl #A302-583A, Pol2 Ser5 #Ab5408) for at least 8 hours at 4 degrees, rotating. Antibody-coupled beads were then added to sonicated chromatin (20e6 cells for Brd2/Brd4, 10e6 for Pol2) and incubated overnight at 4 degrees. After washing the IPs eight times with wash buffer (50 mM Hepes-KOH pH7.6, 100 mM LiCl, 1 mM EDTA, 1% NP-40, 0.7% Na-Deoxycholate) and once with TE buffer (10 mM Tris-HCl, 1 mM EDTA, 50 mM NaCl), Chromatin was eluted from magnetic beads in 200 ul elution buffer ([…] Tris-HCl pH8.0, 10 mM EDTA, 1% SDS) for 45 minutes at 65 degrees. Samples were de-crosslinked overnight at 65 degrees and proteins and RNA were removed by incubating with RNAse and proteinase k. Samples were purified using the Qiagen PCR purification kit according to the manufacturers protocol.
Samples were end-repaired using the End-IT DNA End-Repair Kit (#ER0720). After 45 minutes incubation, samples were purified using the Qiagen PCR Clean up kit as described above. Samples were adenylated using a reaction mix (200 uM dATP, 1× Klenow buffer NEB2, Klenow Fragment (3′ to 5′ exo-), NEB M0212L) and incubating at 37 degrees for 30 minutes. […] Raw sequencing reads were then aligned to the mouse mm9 genome using the default settings of Bowtie (v2.2.0)87. Only uniquely mapped reads were retained, and the alignments were subsequently filtered using the SAMtools package (v0.1.19)88 to remove duplicate reads. […]

In another assay the test system is primary cortical neurons. Briefly: Autophagy, protein content and cell size in neurons (LC3II/LC3I, BCA, Map2+ area). It counts as cell-based, mouse. The protocol: Immunoblotting. Mice were anesthetized with CO2 followed by decapitation, and the region of interest was rapidly dissected and frozen in liquid nitrogen and stored at −80° C. until further processing. Samples were sonicated at 4° C. in 1% SDS solution supplemented with protease, Trichostatin A (500 ng/ml) and PhosStop phosphatase inhibitor (Roche, Switzerland), and boiled for ten minutes. The protein concentration was determined using a BCA protein assay kit (ThermoFisherScientific, USA) according to the manufacturer's instructions. Protein samples were diluted in equal volume of 2×LDS sample buffer (Invitrogen) and supplemented with DTT to a final concentration of 200 mM (Sigma).
Because autophagy increases lipid species which are mostly non-polar, they are not detected in the polar metabolite data. However, if autophagy is, in fact, activated after BET inhibition, the neurons would be smaller and possibly contain less protein. Indeed, total protein content is decreased by 13% as measured by the BCA assay after one week of BET inhibition (FIG. 13C). […] Moreover, BET inhibition causes an almost three-fold increase in autophagy as measured by the ratio of LC3II to LC3I, a common autophagic marker (FIG. 13D).
Primary cortical neurons treated with IBET858 for 1 week have decreased glycolysis and amino acid metabolites (FIG. 21A). […] A summary of gene expression and metabolite data highlighting downregulation of solute carriers and metabolites that support anabolic and oxidative metabolic programs and an upregulation of neuroprotective metabolites and programs, such as autophagy (FIG. 21C). The glycolytic capacity of primary cortical neurons treated with acute (24 hour) or chronic (1 week) of IBET858 (FIGS. 21D-21H). IBET treated neurons was evaluated using the Seahorse assay. […] Further, the neurons display a decrease in glycolytic capacity as measured by the extracellular acidification rate (ECAR) (FIG. 21H). 1 week of IBET858 treatment increases autophagy as measured by an increase in the LC3 II/I ratio and a decrease in overall protein content by BCA assay (FIGS. 21I and 21J). CAG-RFP-EGFP-Map1lc3b mice expressing the LC3 protein together with RFP and a pH-dependent eGFP were used to evaluate the number of autophagic vesicles by immunofluorescence (FIGS. 21K and 21L). […] Frequency distribution of autophagic vesicles after 24 hours (left) or 1 week (right) treatment with IBET858 (FIG. 21L).

With `CC(=O)N1c2ccc(-c3ccc(CN4CCCCC4)cc3)cc2[C@H](Nc2ccccc2)CC1C` (stereo in doubt) [IBET858], at BRD4 (6 h IBET858), the “genes that lose BRD4 at the transcriptional start site” value was determined as 2226 genes and the “genes with gain of BRD4 at the transcriptional start site” value amounted to 295 genes. The “loci with reduced occupancy of BRD4” value at BRD4 (DIV7, 6 h IBET858) is listed as 4756 loci. Further, the “loci with increased occupancy of BRD4” value at BRD4 (day 7, 6 h IBET858) is recorded as 1827 loci. In addition, the “decrease in somatic area (Map2+ area)” value in the assay with primary cortical neurons is listed as 25%. For the same compound, in the assay on primary cortical neurons (1 w), the “autophagic vesicles (CAG-RFP-EGFP-Map1lc3b neurons)” value is “an increase in autophagic vesicles”. For the same compound, in the assay on primary cortical neurons (1 week), the “increase in autophagy, ratio of LC3II to LC3I” value is “three”. Also, in the assay on primary cortical neurons (one week of BET inhibition), the “decrease in total protein content, BCA assay” value was found to be 13%.

These data come from patent US12691124B2, “Methods of controlling and improving brain health” (ICAHN SCHOOL OF MEDICINE AT MOUNT SINAI, priority 2019, dated 2026).
